Experiments:
Dissolution rate test = assay type: physicochemical; conditions: stirring in 0.2 wt % sodium dodecylsulfate in water at 37° C., 10 mg compound Y, after 30 minutes
Description: Forms E, F and G are tested for respective dissolution rates. […] 92% available compound Y is released from Form E. This compares with approximately 5% release after 30 minutes from an equivalent amount of crystalline compound Y.

[1] = Relative bioavailability study in fasted beagle dogs; assay type: in vivo; conditions: 1 mg/kg, hard gelatin capsules each containing 10 mg compound X
Description: Hard gelatin capsules each containing 10 mg compound X were administered to 8 dogs in a 4-way latin square design; the dogs were fed 6 hours post administration of the capsules, and blood levels of compound X were determined over 48 hours.

Compound | available compound Y released and dissolved (Dissolution rate test) | Median peak levels [1] [ng/mL] | median AUC levels of 0-48 hr [1]
CC[C@@H]1/C=C(\C)C[C@H](C)C[C@H](OC)[C@H]2O[C@@](O)(C(=O)C(=O)N3CCCC[C@H]3C(=O)O[C@H](/C(C)=C/[C@@H]3CC[C@H](Cl)[C@H](OC)C3)[C@H](C)[C@@H](O)CC1=O)[C@H](C)C[C@@H]2OC [crystalline compound Y, 33-epi-chloro-33-desoxy-ascomycin] | approximately 5% |  | 
CO[C@H]1C[C@@H]2CC[C@@H](C)[C@@](O)(O2)C(=O)C(=O)N2CCCC[C@H]2C(=O)O[C@H]([C@H](C)C[C@@H]2CC[C@@H](OCCO)[C@H](OC)C2)CC(=O)[C@H](C)/C=C(\C)[C@@H](O)[C@@H](OC)C(=O)[C@H](C)C[C@H](C)/C=C/C=C/C=C/1C [Compound X, 40-O-(2-hydroxy)ethyl rapamycin] |  | 140 | ca. 1600 ng.h/ml

Reference: patent US6956043B2, “Pharmaceutical compositions comprising 33-epi-chloro-33-desoxy-ascomycin solid dispersions” (Novartis AG, priority 1995, dated 2005)
